Assay results published in US11667879B2, “Dynamic incubator system and method” (FOREVER LABS, INC., priority 2019, dated 2023).

Test system: rat 9 L gliosarcoma cells
Test: cell proliferation experiment, 9 L gliosarcoma cells
Assay type: cell-based
Conditions: 10 uM Fisetin for 24 hours, then 48 hours without; 72 hours, dynamic incubation vs constant
Description: Referring now to FIG. 11, another graph illustrating the results of another cell proliferation experiment is depicted. In this experiment, rat 9 L gliosarcoma cells after 72 hours of culture in controlled temperature and gas concentration (constant 37° C. and 5% CO2) are compared with dynamic incubation using the dynamic incubator system 10 (cycling 37° C. and 5% CO2 for 8 hrs., then 38° C. and 5.5% CO2 for 30 min.). The experiment included 10 uM Fisetin. In addition, 100,000 9 L cells were plated in a T75 flask, containing 10 mL of α-MEM medium, with 10 uM Fisetin. In addition, the medium was refreshed after 24 hours without Fisetin, and the cells were then cultured for a 48 additional hours. […] P-values are from t-test compared to control.

O=c1c(O)c(-c2ccc(O)c(O)c2)oc2cc(O)ccc12 [Fisetin]
9 L cell numbers: decreases cell numbers
